PubChem BioAssay AID248 (DTP/NCI, 2004)
“And” between values parts separate entries of the source, which are not always exact repeats. Equal entries are not always repeated. Inconclusive results and toxic doses are left out.

System: L1210 leukemia ip in BDF1 mice, survival T/C
Assay: NCI In Vivo Anticancer Drug Screen. Data for tumor model L1210 Leukemia (intraperitoneal) in B6D2F1 (BDF1) mice
Conditions: endpoint: mean survival time, higher = longer survival
Summary of the method: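 Value reflects the ratio of survival in compound-treated mice to survival in vehicle-treated controls, with both groups carrying the same transplanted tumor.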

In the case of NC(Cc1c[nH]c2ccc(N(CCCl)CCCl)cc12)C(=O)O (stereo not given), the T/C (dose: 0.01 mg/kg/injection, schedule: Q#A X Z (ip), vehicle: acid diluted with saline) is reported as 124 % of control, the T/C (dose: 0.02 mg/kg/injection, schedule: Q01DX010 (iv), vehicle: acid diluted with saline) is reported as 103 % of control and the T/C (dose: 0.02 mg/kg/injection, schedule: Q01DX Z (ip), vehicle: acid diluted with saline) is reported as 108 % of control. The T/C (dose: 0.02 mg/kg/injection, schedule: Q01DX Z (ip), vehicle: saline) was 119 % of control, the T/C (dose: 0.02 mg/kg/injection, schedule: Q01DX Z (sc), vehicle: acid diluted with saline) was 114 % of control and the T/C (dose: 0.05 mg/kg/injection, schedule: Q07DX Z (ip), vehicle: acid diluted with saline) was 111 % of control. The T/C (dose: 0.06 mg/kg/injection, schedule: Q01DX010 (iv), vehicle: acid diluted with saline) was 108 % of control, the T/C (dose: 0.06 mg/kg/injection, schedule: Q01DX Z (sc), vehicle: acid diluted with saline) was 106 % of control and the T/C (dose: 0.09 mg/kg/injection, schedule: Q#A X Z (ip), vehicle: acid diluted with saline) was 167 % of control. The T/C (dose: 0.1 mg/kg/injection, schedule: Q03DX Z (oral), vehicle: acid diluted with saline) was 110 % of control, the T/C (dose: 0.12 mg/kg/injection, schedule: Q01DX Z (oral), vehicle: acid diluted with saline) was 102 % of control and the T/C (dose: 0.12 mg/kg/injection, schedule: Q#A X Z (oral), vehicle: acid diluted with saline) was 121 % of control. The T/C (dose: 0.13 mg/kg/injection, schedule: Q01DX Z (ip), vehicle: saline) was 169 % of control, the T/C (dose: 0.13 mg/kg/injection, schedule: Q01DX Z (oral), vehicle: acid diluted with saline) was 101 % of control and the T/C (dose: 0.15 mg/kg/injection, schedule: Q01DX Z (oral), vehicle: saline) was 96 % of control. For the same compound, the T/C (dose: 0.16 mg/kg/injection, schedule: Q07DX Z (ip), vehicle: acid diluted with saline) was 103 % of control, the T/C (dose: 0.18 mg/kg/injection, schedule: Q01DX009 (ip), vehicle: saline) was 115 % of control and the T/C (dose: 0.18 mg/kg/injection, schedule: Q01DX Z (sc), vehicle: acid diluted with saline) was 120 % of control. For the same compound, the T/C (dose: 0.19 mg/kg/injection, schedule: Q03DX Z (oral), vehicle: acid diluted with saline) was 114 % of control, the T/C (dose: 0.26 mg/kg/injection, schedule: Q01DX Z (ip), vehicle: saline) was 153 % of control and 157 % of control and the T/C (dose: 0.27 mg/kg/injection, schedule: Q#A X Z (ip), vehicle: acid diluted with saline) was 97 % of control. For the same compound, the T/C (dose: 0.3 mg/kg/injection, schedule: Q01DX Z (oral), vehicle: saline) was 100 % of control, the T/C (dose: 0.38 mg/kg/injection, schedule: Q03DX Z (oral), vehicle: acid diluted with saline) was 112 % of control and the T/C (dose: 0.39 mg/kg/injection, schedule: Q01DX Z (ip), vehicle: saline) was 166 % of control. For the same compound, the T/C (dose: 0.5 mg/kg/injection, schedule: Q03DX Z (oral), vehicle: acid diluted with saline) was 120 % of control, the T/C (dose: 0.5 mg/kg/injection, schedule: Q#A X Z (oral), vehicle: acid diluted with saline) was 107 % of control and the T/C (dose: 0.54 mg/kg/injection, schedule: Q01DX Z (ip), vehicle: acid diluted with saline) was 198 % of control. The T/C (dose: 0.54 mg/kg/injection, schedule: Q01DX Z (sc), vehicle: acid diluted with saline) was 160 % of control, the T/C (dose: 0.58 mg/kg/injection, schedule: Q01DX Z (ip), vehicle: saline) was 190 % of control and the T/C (dose: 0.6 mg/kg/injection, schedule: Q01DX Z (oral), vehicle: saline) was 101 % of control. The T/C (dose: 0.75 mg/kg/injection, schedule: Q01DX009 (ip), vehicle: saline) was 176 % of control, the T/C (dose: 0.75 mg/kg/injection, schedule: Q03DX Z (oral), vehicle: acid diluted with saline) was 114 % of control and the T/C (dose: 0.87 mg/kg/injection, schedule: Q01DX Z (ip), vehicle: saline) was 211 % of control. The T/C (dose: 0.9 mg/kg/injection, schedule: Q07DX Z (oral), vehicle: acid diluted with saline) was 114 % of control, the T/C (dose: 1.0 mg/kg/injection, schedule: Q01DX (oral), vehicle: acid diluted with saline) was 189 % of control and the T/C (dose: 1.0 mg/kg/injection, schedule: Q03DX Z (oral), vehicle: acid diluted with saline) was 117 % of control. For the same compound, the T/C (dose: 1.2 mg/kg/injection, schedule: Q01DX Z (oral), vehicle: saline) was 115 % of control, the T/C (dose: 1.3 mg/kg/injection, schedule: Q07DX003 (ip), vehicle: acid diluted with saline) was 155 % of control and the T/C (dose: 1.5 mg/kg/injection, schedule: Q01DX009 (ip), vehicle: saline) was 160 % of control and 260 % of control. For the same compound, the T/C (dose: 1.5 mg/kg/injection, schedule: Q03DX (oral), vehicle: acid diluted with saline) was 117 % of control, the T/C (dose: 1.5 mg/kg/injection, schedule: Q03DX Z (oral), vehicle: acid diluted with saline) was 183 % of control and the T/C (dose: 1.6 mg/kg/injection, schedule: Q01DX Z (sc), vehicle: acid diluted with saline) was 103 % of control. For the same compound, the T/C (dose: 1.75 mg/kg/injection, schedule: Q01DX 1 (oral), vehicle: acid diluted with saline) was 102 % of control and 107 % of control, the T/C (dose: 1.75 mg/kg/injection, schedule: Q07DX (oral), vehicle: acid diluted with saline) was 112 % of control and the T/C (dose: 1.8 mg/kg/injection, schedule: Q07DX Z (oral), vehicle: acid diluted with saline) was 117 % of control.
